Assay results published in the NIST ThermoML archive (doi:10.1021/je800747v).

Test: xn = mol fraction of the nth substance listed
Conditions: 101 kPa, Liquid, Optical method

Compound: CCCCCCC [heptane] + CCO
- binary diffusion coefficient (276.64 K, x2 = 0): 7.57e-09 m2/s
- binary diffusion coefficient (277.73 K, x2 = 0): 7.61e-09 m2/s
- binary diffusion coefficient (281.59 K, x2 = 0): 7.64e-09 m2/s
- binary diffusion coefficient (284.32 K, x2 = 0): 7.7e-09 m2/s
- binary diffusion coefficient (287.28 K, x2 = 0): 7.75e-09 m2/s
- binary diffusion coefficient (289.59 K, x2 = 0): 7.79e-09 m2/s
- binary diffusion coefficient (292.83 K, x2 = 0): 7.84e-09 m2/s
- binary diffusion coefficient (294.95 K, x2 = 0): 7.9e-09 m2/s
- binary diffusion coefficient (296.37 K, x2 = 0): 7.94e-09 m2/s
- binary diffusion coefficient (298.46 K, x2 = 0): 8.07e-09 m2/s
- binary diffusion coefficient (301.29 K, x2 = 0): 8.19e-09 m2/s
- binary diffusion coefficient (304.98 K, x2 = 0): 8.22e-09 m2/s
- binary diffusion coefficient (306.86 K, x2 = 0): 8.37e-09 m2/s
- binary diffusion coefficient (310.67 K, x2 = 0): 8.47e-09 m2/s
- binary diffusion coefficient (312.41 K, x2 = 0): 8.58e-09 m2/s
- binary diffusion coefficient (316.09 K, x2 = 0): 8.71e-09 m2/s
- binary diffusion coefficient (319.27 K, x2 = 0): 8.91e-09 m2/s
- binary diffusion coefficient (322.81 K, x2 = 0): 9.17e-09 m2/s
- binary diffusion coefficient (325.36 K, x2 = 0): 9.22e-09 m2/s
- binary diffusion coefficient (328.78 K, x2 = 0): 9.36e-09 m2/s
- binary diffusion coefficient (332.63 K, x2 = 0): 9.5e-09 m2/s

Compound: [Cl-].[K+] [potassium chloride] + O
- binary diffusion coefficient (298.15 K, x1 = 0): 1.86e-09 m2/s

Compound: COCCOCCOC [2,5,8-trioxanonane] + CCCCCCC
- binary diffusion coefficient (276.64 K, x1 = 0): 9.42e-10 m2/s
- binary diffusion coefficient (277.73 K, x1 = 0): 9.48e-10 m2/s
- binary diffusion coefficient (281.59 K, x1 = 0): 9.51e-10 m2/s
- binary diffusion coefficient (284.32 K, x1 = 0): 9.58e-10 m2/s
- binary diffusion coefficient (287.28 K, x1 = 0): 9.76e-10 m2/s
- binary diffusion coefficient (289.59 K, x1 = 0): 9.87e-10 m2/s
- binary diffusion coefficient (292.83 K, x1 = 0): 1e-09 m2/s
- binary diffusion coefficient (294.95 K, x1 = 0): 1.02e-09 m2/s
- binary diffusion coefficient (296.37 K, x1 = 0): 1.05e-09 m2/s
- binary diffusion coefficient (298.46 K, x1 = 0): 1.07e-09 m2/s
- binary diffusion coefficient (301.29 K, x1 = 0): 1.08e-09 m2/s
- binary diffusion coefficient (304.98 K, x1 = 0): 1.12e-09 m2/s
- binary diffusion coefficient (306.86 K, x1 = 0): 1.14e-09 m2/s
- binary diffusion coefficient (310.67 K, x1 = 0): 1.18e-09 m2/s
- binary diffusion coefficient (312.41 K, x1 = 0): 1.23e-09 m2/s
- binary diffusion coefficient (316.09 K, x1 = 0): 1.26e-09 m2/s
- binary diffusion coefficient (319.27 K, x1 = 0): 1.31e-09 m2/s
- binary diffusion coefficient (322.81 K, x1 = 0): 1.37e-09 m2/s
- binary diffusion coefficient (325.36 K, x1 = 0): 1.43e-09 m2/s
- binary diffusion coefficient (328.78 K, x1 = 0): 1.48e-09 m2/s
- binary diffusion coefficient (332.63 K, x1 = 0): 1.53e-09 m2/s

Compound: COCCOC [1,2-dimethoxyethane] + CCCCCCC
- binary diffusion coefficient (276.64 K, x1 = 0): 5.24e-09 m2/s
- binary diffusion coefficient (277.73 K, x1 = 0): 5.28e-09 m2/s
- binary diffusion coefficient (281.59 K, x1 = 0): 5.31e-09 m2/s
- binary diffusion coefficient (284.32 K, x1 = 0): 5.35e-09 m2/s
- binary diffusion coefficient (287.28 K, x1 = 0): 5.4e-09 m2/s
- binary diffusion coefficient (289.59 K, x1 = 0): 5.44e-09 m2/s
- binary diffusion coefficient (292.83 K, x1 = 0): 5.51e-09 m2/s
- binary diffusion coefficient (294.95 K, x1 = 0): 5.57e-09 m2/s
- binary diffusion coefficient (296.37 K, x1 = 0): 5.63e-09 m2/s
- binary diffusion coefficient (298.46 K, x1 = 0): 5.69e-09 m2/s
- binary diffusion coefficient (301.29 K, x1 = 0): 5.79e-09 m2/s
- binary diffusion coefficient (304.98 K, x1 = 0): 5.89e-09 m2/s
- binary diffusion coefficient (306.86 K, x1 = 0): 5.98e-09 m2/s
- binary diffusion coefficient (310.67 K, x1 = 0): 6.13e-09 m2/s
- binary diffusion coefficient (312.41 K, x1 = 0): 6.3e-09 m2/s
- binary diffusion coefficient (316.09 K, x1 = 0): 6.48e-09 m2/s
- binary diffusion coefficient (319.27 K, x1 = 0): 6.62e-09 m2/s
- binary diffusion coefficient (322.81 K, x1 = 0): 6.79e-09 m2/s
- binary diffusion coefficient (325.36 K, x1 = 0): 6.94e-09 m2/s
- binary diffusion coefficient (328.78 K, x1 = 0): 7.3e-09 m2/s
- binary diffusion coefficient (332.63 K, x1 = 0): 7.59e-09 m2/s
